“Also recorded” adds a separate entry of the source. Where two headings read alike, the source gives them in different places.
Columns and labels:
[1] = ophthalmic drug penetration and drug conversion to lanosterol in vivo (aqueous humor concentration after eye drops); design: species or system New Zealand white rabbits
Procedure: In this study, New Zealand white rabbits (body weight was more than 2 kg, age was more than 12 weeks) were used as experimental animals. Each compound was studied with two New Zealand white rabbits. Each rabbit was instilled with […] eye drops in each eyes three eyes were used to collect aqueous humor samples and one eye was used as a backup. […] After the eye drops was dripped into the rabbit's eyes, the anterior aqueous humor was collected at 0.5, 2, 4 and 6 hours after administration. The volume of each sample was not more than 50 μL. Each animal was given mild anesthesia before collecting samples. Three samples were collected at every time point. The collected aqueous humor samples were stored in dry ice immediately after collection or stored in a refrigerator at −80±10° C. After the sample collection, the animals were euthanized. The concentration of the compound in each sample was determined using a triple quadrupole mass spectrometer (API 4000).

[2] = test system: sodium selenite-induced neonatal New Zealand rabbit cataract model; test: sodium selenite-induced cataract model, lens transparency test in vitro; assay type: in vivo, neonatal New Zealand rabbits; settings: after 42 days of administration
Procedure: (§1) P7 days old neonatal New Zealand rabbits, normal grade, and 5 young rabbits per litter were breast-fed with a mother rabbit.
(§2) The experimental young rabbits were randomly divided into 5 groups with 5 rabbits per group.
(§3) 1) Normal control group (NC): in the P10 day, young rabbits were injected subcutaneously with 0.25 mL physiological saline from the neck, and were not administered after the P15 day.
(§4) 2) Model control group (MC): in the P10 day, young rabbits were injected subcutaneously with sodium selenite solution (in physiological saline) at 20 μmol/kg body weight, and after the P15 day, drug-free blank eyes drops was dripped into the right eye 3 times every day for 42 days.
as §4, with “3) Positive” for “2) Model”, “(PC):” for “(MC):”, “kary uni eye” for “drug-free blank eyes”, “drops (Santen Pharmaceutical Co., Ltd in Japan)” for “drops”
(§5) 4) Lanosterol eye drops treatment group (LT): in the P10 day, young rabbits were injected subcutaneously with sodium selenite solution (in physiological saline) at 20 μmol/kg body weight, and after the P15 day, lanosterol eye drops was dripped into the right eye 3 times every day for 42 days.
as §5, with “5)” for “4)”, “Lanosterol prodrug 026” for “Lanosterol”, “(026):” for “(LT):”, “lanosterol prodrug 026” for “lanosterol”
2) Lens transparency test in vitro: on the last day, the animal's eyeball was dissected, the lens containing the capsule was completely separated, and the lens was placed on a grid paper (2.12×2.12 mm).

[3] = test system: sodium selenite-induced neonatal New Zealand rabbit cataract model; test: sodium selenite-induced cataract model, slit lamp observation; assay type: in vivo, neonatal New Zealand rabbits; settings: eye drops right eye 3 times every day, 42 days, compared with pre-dose
Procedure: as §1, §2, §3, §4
as §4, with “3) Positive” for “2) Model”, “(PC):” for “(MC):”, “kary uni eye” for “drug-free blank eyes”, “drops (Santen Pharmaceutical Co., Ltd in Japan)” for “drops”
4) Lanosterol eye drops treatment group (LT): in the P10 day, young rabbits were injected subcutaneously with sodium selenite solution (in physiological saline) at 20 μmol/kg body weight, and after the P15 day, lanosterol eye drops was dripped into the right eye 3 times every day for 42 days. […]

[4] = test system: lens glutathione peroxidase (GSH-PX) activity; test: ultraviolet-induced cataract model, lens GSH-PX activity assay; assay type: in vivo, New Zealand rabbits; settings: after 42 days of administration; for effect on lens GSH-PX activity compared to the other treatment groups: 026 vs kary uni p<0.05
Procedure: (§6) Adult New Zealand rabbits 2.0-2.5 kg, normal grade, male and female, a total of 25.
(§7) The experimental rabbits were randomly divided into 5 groups with 5 rabbits per group.
(§8) 1) Normal control group (NC): normal feeding, no drug administration.
(§9) 2) Model control group (MC): 313 nm UV irradiation for 24 hours to make model, then drug-free blank eye drops was dripped to the right eye 3 times every day for 42 days.
(§10) 3) Positive control group (PC): 313 nm UV irradiation for 24 hours to make model, then kary uni eye drops (Santen Pharmaceutical Co., Ltd in Japan) was dripped into the right eye 3 times every day for 42 days.
(§11) 4) Lanosterol eye drops treatment group (LT): 313 nm UV irradiation for 24 hours to make model, then lanosterol eye drops was dripped into the right eye 3 times every day for 42 days.
(§12) 5) Lanosterol prodrug 026 eye drops treatment group (026): 313 nm UV irradiation for 24 hours to make model, then the lanosterol prodrug 026 eye drops was dripped into the right eye 3 times every day for 42 days.
(§13) 3) Glutathione peroxidase (GSH-PX) activity assay: GSH-PX activity of the isolated rabbit lens in each group was determined by the method provided in the specification of GSH-PX activity detection kit (Nanjing Jiancheng Bioengineering Institute). The experimental data was analyzed by One-Way ANOVA with SPSS statistical software. The LSD method was used to compare the groups, and the statistical difference level was p<0.05.

[5] = test system: ultraviolet-induced New Zealand rabbit cataract model; test: ultraviolet-induced cataract model, lens transparency test in vitro; assay type: in vivo, New Zealand rabbits; settings: after 42 days of administration
Procedure: as §6, §7, §8, §9, §10, §11, §12
2) lens transparency test in vitro: on the last day, the animal's eyeball was dissected, the lens containing the capsule was completely separated, and the lens was placed on a grid paper (2.12×2.12 mm).

[6] = test system: lens glutathione peroxidase (GSH-PX) activity; test: sodium selenite-induced cataract model, lens GSH-PX activity assay; assay type: in vivo, neonatal New Zealand rabbits; settings: after 42 days of administration; for effect on lens GSH-PX activity compared to the other treatment groups: 026 vs kary uni p<0.01
Procedure: as §1, §2, §3, §4
as §4, with “3) Positive” for “2) Model”, “(PC):” for “(MC):”, “kary uni eye” for “drug-free blank eyes”, “drops (Santen Pharmaceutical Co., Ltd in Japan)” for “drops”
as §5
as §5, with “5)” for “4)”, “Lanosterol prodrug 026” for “Lanosterol”, “(026):” for “(LT):”, “lanosterol prodrug 026” for “lanosterol”
as §13

[7] = test system: ultraviolet-induced New Zealand rabbit cataract model; test: ultraviolet-induced cataract model, slit lamp observation; assay type: in vivo, New Zealand rabbits; settings: ultraviolet (313 nm, 24 hours) model, eye drops right eye 3 times every day, 42 days, compared with pre-dose
Procedure: as §6, §7, §8, §9, §10, §11, §12

[8] = test system: cataract; settings: background, published in Nature; cited from earlier work
[9] = test system: pre-formed lens protein aggregates; settings: in vitro at the cellular level; background, published in Nature; cited from earlier work
[10] = 6 hours after 250 nmol dripped into each eye of New Zealand white rabbit
[11] = in vivo, 250 nmol per eye, 0.5 hour after 250 nmol dripped into each eye of New Zealand white rabbit, read-out: Average concentration of the dripped compound itself in the aqueous humor
[12] = in vivo, 250 nmol per eye, 2 hours after 250 nmol dripped into each eye of New Zealand white rabbit, read-out: Average concentration of the dripped compound itself in the aqueous humor
[13] = 0.5 hour after 250 nmol dripped into each eye of New Zealand white rabbit
[14] = 2 hours after 250 nmol dripped into each eye of New Zealand white rabbit
[15] = 4 hours after 250 nmol dripped into each eye of New Zealand white rabbit
[16] = listed as lanosterol prodrug 026
[17] = 026 and kary uni p<0.01, lanosterol p>0.05, listed as lanosterol prodrug 026
[18] = 026 and kary uni p<0.01, lanosterol p>0.05

## COC(=O)[C@H](C)NP(=O)(Oc1ccccc1)O[C@H]1CC[C@]2(C)C3=C(CCC2C1(C)C)[C@]1(C)CC[C@H]([C@H](C)CCC=C(C)C)[C@@]1(C)CC3 (stereo partly shown) [Compound 1]
[1]; 0.5 hour after 250 nmol prodrug dripped into each eye of New Zealand white rabbit
  Average concentration of Lanosterol in the aqueous humor after the prodrug was dripped: BQL
[1]; 2 hours after 250 nmol prodrug dripped into each eye of New Zealand white rabbit
  Average concentration of Lanosterol in the aqueous humor after the prodrug was dripped: BQL
[1]; [10]
  Average concentration of the dripped compound itself in the aqueous humor: BQL
[1]; [11]
  concentration at 0.5 h: 7.5 nM
[1]; [12]
  concentration at 2 h: 8.6 nM

## CC(C)=CCC[C@@H](C)[C@H]1CC[C@@]2(C)C3=C(CC[C@]12C)[C@@]1(C)CC[C@H](OC(=O)c2ccc([N+](=O)[O-])cc2)C(C)(C)C1CC3 (stereo partly shown) [Compound 4]
[1]; [13]
  Average concentration of the dripped compound itself in the aqueous humor: BQL
[1]; [14]
  Average concentration of the dripped compound itself in the aqueous humor: BQL
[1]; [15]
  Average concentration of the dripped compound itself in the aqueous humor: BQL
[1]; [10]
  Average concentration of the dripped compound itself in the aqueous humor: BQL

## CC(C)=CCC[C@@H](C)[C@H]1CC[C@@]2(C)C3=C(CC[C@]12C)[C@@]1(C)CC[C@H](OC(=O)c2ccccc2O)C(C)(C)C1CC3 (stereo partly shown) [Compound 8]
[2]
  lens transparency of the right eye compared to the MC group: significantly higher than that of the MC group
  lens transparency of the right eye compared to the NC group: still lower than that of the NC group
[2]; [16]
  lens transparency of the administered right eye compared to the left eye (self-control): significantly higher than that of the left eye; also recorded: improve lens transparency
[3]; [16]
  cataract symptoms, slit lamp observation: cataract symptoms were significantly reduced; also recorded: could alleviate the cataract symptoms
[1]; [10]
  Average concentration of the dripped compound itself in the aqueous humor: BQL
[1]; [11]
  concentration at 0.5 h: 41 nM
[1]; [12]
  concentration at 2 h: 33.3 nM
[1]; in vivo, 250 nmol per eye, 4 hours after 250 nmol dripped into each eye of New Zealand white rabbit, read-out: Average concentration of the dripped compound itself in the aqueous humor
  concentration at 4 h: 25.5 nM
[4]; [17]
  lens GSH-PX activity compared to the MC group: could increase the GSH-PX activity of the lens; also recorded: improve lens transparency and lens GSH-PX activity
[4]
  effect on lens GSH-PX activity compared to the other treatment groups: better than that of kary uni
[5]
  lens transparency of the right eye compared to the MC group: significantly higher than that of the MC group
  lens transparency of the right eye compared to the NC group: still lower than that of the NC group
[5]; [16]
  lens transparency of the administered right eye compared to the left eye (self-control): significantly higher than that of the left eye; also recorded: improve lens transparency
[6]; [17]
  lens GSH-PX activity compared to the MC group: could increase the GSH-PX activity of the lens; also recorded: improve lens transparency and lens GSH-PX activity
[6]
  effect on lens GSH-PX activity compared to the other treatment groups: better than that of kary uni
[7]; [16]
  cataract symptoms, slit lamp observation: cataract symptoms were significantly reduced; also recorded: could alleviate the cataract symptoms

## CC(C)=CCC[C@@H](C)[C@H]1CC[C@@]2(C)C3=C(CC[C@]12C)[C@@]1(C)CC[C@H](OC(=O)c2ccno2)C(C)(C)C1CC3 (stereo partly shown) [Compound 9]
[1]; [13]
  Average concentration of the dripped compound itself in the aqueous humor: BQL
[1]; [14]
  Average concentration of the dripped compound itself in the aqueous humor: BQL

## CC(C)=CCC[C@@H](C)[C@H]1CC[C@@]2(C)C3=C(CC[C@]12C)[C@@]1(C)CC[C@H](OC(=O)c2ncon2)C(C)(C)C1CC3 (stereo partly shown) [Compound 10]
[1]; [13]
  Average concentration of the dripped compound itself in the aqueous humor: BQL
[1]; [12]
  concentration at 2 h: 37.9 nM

## CC(=O)Oc1ccccc1C(=O)O[C@H]1CC[C@]2(C)C3=C(CCC2C1(C)C)[C@]1(C)CC[C@H]([C@H](C)CCC=C(C)C)[C@@]1(C)CC3 (stereo partly shown) [Compound 12]
[1]; 250 nmol dripped into each eye of New Zealand white rabbit
  AUC (exposure amount) of the dripped compound itself in the aqueous humor: BQL
[1]; [15]
  Average concentration of the dripped compound itself in the aqueous humor: BQL
[1]; [10]
  Average concentration of the dripped compound itself in the aqueous humor: BQL
[1]; [11]
  concentration at 0.5 h: 60 nM
[1]; [12]
  concentration at 2 h: 15.6 nM

## CC(C)=CCC[C@@H](C)[C@H]1CC[C@@]2(C)C3=C(CC[C@]12C)[C@@]1(C)CC[C@H](O)C(C)(C)[C@@H]1CC3 [Lanosterol]
[8]
  effect on cataract and lens transparency in vivo: can reverse the condition of cataract
[2]
  lens transparency of the administered right eye compared to the left eye (self-control): no significant change in lens transparency
[3]
  cataract symptoms, slit lamp observation: did not change significantly
[1]; aqueous humor, topical, 250 nmol per eye, 0.5 hour after 250 nmol dripped into each eye of New Zealand white rabbit, read-out: Average concentration of the dripped compound itself in the aqueous humor
  concentration at 0.5 h: 106 nM
[1]; aqueous humor, topical, 250 nmol per eye, 2 hours after 250 nmol dripped into each eye of New Zealand white rabbit, read-out: Average concentration of the dripped compound itself in the aqueous humor
  concentration at 2 h: 496 nM
[1]; aqueous humor, topical, 250 nmol per eye, 4 hours after 250 nmol dripped into each eye of New Zealand white rabbit, read-out: Average concentration of the dripped compound itself in the aqueous humor
  concentration at 4 h: 300 nM
[1]; aqueous humor, topical, 250 nmol per eye, 6 hours after 250 nmol dripped into each eye of New Zealand white rabbit, read-out: Average concentration of the dripped compound itself in the aqueous humor
  concentration at 6 h: 225 nM
[1]; eye drops, rabbit, in words
  penetration into the aqueous humor / permeability: could penetrate into the aqueous humor
[4]; [18]
  lens GSH-PX activity compared to the MC group: no statistical difference compared to the MC group
[4]
  effect on lens GSH-PX activity compared to the other treatment groups: significantly lower than that of 026 and kary uni
[5]
  lens transparency of the administered right eye compared to the left eye (self-control): no significant change in lens transparency
[6]; [18]
  lens GSH-PX activity compared to the MC group: no statistical difference compared to the MC group
[6]
  effect on lens GSH-PX activity compared to the other treatment groups: significantly lower than that of 026 and kary uni
[9]
  effect on pre-formed lens protein aggregates: significantly reduce pre-formed lens protein aggregates
[7]
  cataract symptoms, slit lamp observation: did not change significantly

Source: patent US10738076B2, “Lanosterol prodrug compound and preparation method therefor and use thereof” (ZHONGSHAN OPHTHALMIC CENTER, SUN YAT-SEN UNIVERSITY, priority 2017, dated 2020)
